Measured values: patent US10093675B2, “6,8-disubstituted-9-(heterocyclyl)purines, compositions containing these derivatives and their use in cosmetic and medicinal applications” (USTAV EXPERIMENTALNI BOTANIKY AV CR, V.V.I., priority 2014, dated 2018)
Where two headings read alike, the source gives them in different places.

Experiments:
[1] = system: cytokinin-dependent tobacco callus Nicotiana tabacum L. cv. Wisconsin 38; experiment: Plant cell division: growth of cytokinin-dependent tobacco callus; assay type: cell-based; conditions: for Activity (%); (s.d.): relative activity at concentration with highest activity, 10^−6 M kinetin set at 100%; for Concentration with highest activity (mol/l): tobacco callus fresh weight increase after four weeks, tested 10^−8 M to 10^−4 M
[2] = system: normal diploid fibroblasts BJ; experiment: In vitro cytotoxic activity (Calcein AM), BJ; assay type: cell-based, human; conditions: 72 hours, read-out: Cell line tested/IC50 (μmol/L) BJ
Outline: (§1)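 72 h drug exposure, 37° C/5% CO2, after 24 h cell pre-incubation; 6 × 3-fold dilutions, max typically 100 μM, triplicates. Readout: calcein fluorescence 1 h after Calcein AM 1 μg/ml final. GI50 = concentration halving Calcein AM conversion, from dose-response curve.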

[3] = system: T-lymphoblastic leukemia cell line CEM; experiment: In vitro cytotoxic activity (Calcein AM), CEM; assay type: cell-based, human; conditions: 72 hours, read-out: Cell line tested/IC50 (μmol/L) CEM
Outline: as §1

[4] = system: erytroid leukemia cell line K-562; experiment: In vitro cytotoxic activity (Calcein AM), K-562; assay type: cell-based, human; conditions: read-out: Cell line tested/IC50 (μmol/L) K-562
Outline: as §1

[5] = system: breast carcinoma cell line MCF-7; experiment: In vitro cytotoxic activity (Calcein AM), MCF-7; assay type: cell-based, human; conditions: read-out: Cell line tested/IC50 (μmol/L) MCF7
Outline: as §1

[6] = system: osteosarcoma cell line HOS; experiment: In vitro cytotoxic activity (Calcein AM), HOS; assay type: cell-based, human; conditions: 72 hours, read-out: Cell line tested/IC50 (μmol/L) HOS
Outline: as §1

melanoma cell line G-361 = experiment: In vitro cytotoxic activity (Calcein AM), G-361; assay type: cell-based, human; conditions: read-out: Cell line tested/IC50 (μmol/L) G-361
Outline: as §1

[7] = system: Human diploid fibroblast BJ; experiment: In vitro cytotoxic activity (MTT); assay type: cell-based; conditions: 72 hours incubation; concentration causing 20% decrease in mitochondrial dehydrogenase activity
[8] = system: Salmonella typhimurium histidien auxotrophs TA98 and TA100; experiment: Ames test; assay type: cell-based; conditions: 2.5 to 5000 μg/plate; presence and absence of Aroclor-induced rat liver S9
Outline: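 Strains TA98 and TA100 exposed to compounds in DMSO at 2.5, 5.0, 15, 50, 500, 1500 and 5000 μg/plate following standard Ames/Maron protocols.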

For `C/C(=C\CNc1ncnc2c1nc(Br)n2C1CCCCO1)CO` (stereo not shown) [Compound 24, (E)-8-Bromo-6-(4-hydroxy-3-methylbut-2-en-1-ylamino)-9-(tetrahydropyran-2-yl)-9H-purine], the “Activity (%); (s.d.)” value [1] was 128 (±8) %, the IC50 ([2]; Homo sapiens, Fibroblast) was over 50 µmol/L and the IC50 ([3]; Homo sapiens) was over 50 µmol/L. For the same compound, the IC50 ([4]; Homo sapiens, K562, 72 hours) was over 50 µmol/L, the IC50 ([5]; Homo sapiens, MCF7, 72 hours) was over 50 µmol/L and the IC50 ([6]; Homo sapiens) was over 50 µmol/L. For the same compound, the IC50 (melanoma cell line G-361; Homo sapiens, G-361, 72 hours) was over 50 µmol/L, the “GI20” value [7] was over 100 µM and the mutagenic response [8] was “no positive mutagenic responses”.

In the case of `Fc1cccc(CNc2ncnc3c2nc(Br)n3C2CCCCO2)c1` (stereo not shown) [Compound 26], the “Activity (%); (s.d.)” value [1] is reported as 117 (±4) %, the “Concentration with highest activity (mol/l)” value (from here on “Concentration”) [1] is reported as 10^−6-10^−5 mol/l and the IC50 [2] is reported as over 50 µmol/L. The IC50 [3] was over 50 µmol/L, the IC50 ([4]; 72 hours) was over 50 µmol/L and the IC50 ([5]; 72 hours) was over 50 µmol/L. The IC50 [6] was over 50 µmol/L, the IC50 (melanoma cell line G-361; 72 hours) was over 50 µmol/L and the “GI20” value [7] was over 100 µM. For the same compound, the mutagenic response [8] was “no positive mutagenic responses”.

With `Fc1ccc(CNc2ncnc3c2nc(Br)n3C2CCCCO2)cc1F` (stereo not shown) [Compound 27] the “Activity (%); (s.d.)” value [1] was 115 (±4) %, the “Concentration” value [1] was 10^−6-10^−5 mol/l and the IC50 [2] was over 50 µmol/L. The IC50 [3] was over 50 µmol/L, the IC50 ([4]; 72 hours) was over 50 µmol/L and the IC50 ([5]; 72 hours) was over 50 µmol/L. The IC50 [6] was over 50 µmol/L, the IC50 (melanoma cell line G-361; 72 hours) was over 50 µmol/L and the “GI20” value [7] was over 100 µM. The mutagenic response [8] was “no positive mutagenic responses”.

`C/C(=C\CNc1ncnc2c1nc(Cl)n2C1CCCO1)CO` (stereo not shown) [Compound 64] was tested, and the “Activity (%); (s.d.)” value [1] was 130 (±10) %, the “Concentration” value [1] was 10^−6-10^−4 mol/l and the IC50 [2] was over 50 µmol/L. The IC50 [3] was over 50 µmol/L, the IC50 ([4]; 72 hours) was over 50 µmol/L and the IC50 ([5]; 72 hours) was over 50 µmol/L. For the same compound, the IC50 [6] was over 50 µmol/L, the IC50 (melanoma cell line G-361; 72 hours) was over 50 µmol/L and the “GI20” value [7] was over 100 µM. For the same compound, the mutagenic response [8] was “no positive mutagenic responses”.

In the case of `COc1cccc(CNc2ncnc3c2nc(Cl)n3C2CCCO2)c1` (stereo not shown) [Compound 69], the “Activity (%); (s.d.)” value [1] is reported as 111 (±5) %, the “Concentration” value [1] is reported as 10^−6-10^−4 mol/l and the IC50 [2] is reported as over 50 µmol/L. It also gave an IC50 [3] of over 50 µmol/L, an IC50 ([4]; 72 hours) of over 50 µmol/L and an IC50 ([5]; 72 hours) of over 50 µmol/L. For the same compound, the IC50 [6] was over 50 µmol/L, the IC50 (melanoma cell line G-361; 72 hours) was over 50 µmol/L and the “GI20” value [7] was over 100 µM. The mutagenic response [8] was “no positive mutagenic responses”.

`COc1nc2c(NCc3ccco3)ncnc2n1C1CCCCO1` (stereo not shown) [Compound 124, 6-Furfurylamino-8-methoxy-9-(tetrahydropyran-2-yl)-9H-purine] was tested, and the “Activity (%); (s.d.)” value [1] was 105 (±2) %, the IC50 ([2]; Homo sapiens, Fibroblast) was over 50 µmol/L and the IC50 ([3]; Homo sapiens) was over 50 µmol/L. For the same compound, the IC50 ([4]; Homo sapiens, K562, 72 hours) was over 50 µmol/L, the IC50 ([5]; Homo sapiens, MCF7, 72 hours) was over 50 µmol/L and the IC50 ([6]; Homo sapiens) was over 50 µmol/L. The IC50 (melanoma cell line G-361; Homo sapiens, G-361, 72 hours) was over 50 µmol/L, the “GI20” value [7] was over 100 µM and the mutagenic response [8] was “no positive mutagenic responses”.

In the case of `CSc1nc2c(NCc3ccco3)ncnc2n1C1CCCCO1` (stereo not shown) [Compound 145, 6-Furfurylamino-8-methylsulfanyl-9-(tetrahydropyran-2-yl)-9H-purine], the “Activity (%); (s.d.)” value [1] is reported as 103 (±5) %, the IC50 ([2]; Homo sapiens, Fibroblast) is reported as over 50 µmol/L and the IC50 ([3]; Homo sapiens) is reported as over 50 µmol/L. For the same compound, the IC50 ([4]; Homo sapiens, K562, 72 hours) was over 50 µmol/L, the IC50 ([5]; Homo sapiens, MCF7, 72 hours) was over 50 µmol/L and the IC50 ([6]; Homo sapiens) was over 50 µmol/L. The IC50 (melanoma cell line G-361; Homo sapiens, G-361, 72 hours) was over 50 µmol/L, the “GI20” value [7] was over 100 µM and the mutagenic response [8] was “no positive mutagenic responses”.
